{"source": "paper PMC10977697", "about": "(PLOS ONE, 2024)", "note": "Where no end group is shown, it is not given here.", "data": [{"tested_on": "ApoL1", "assay": "Spot phage ELISA, ApoL1", "type": "binding, human", "settings": "ratio of signal for target protein over BSA background", "values": [{"substance": "GCKFMNWKCKQDSDCLAGCVCTENEPCG (also: bicyclic or more (positions not given here)) [ApoL1 EET I-II 2]", "S/N": 53.2}, {"substance": "GCKFRLWFCKQDSYCLPGCVCGPNGFCG (also: bicyclic or more (positions not given here)) [ApoL1 EET I-II 42]", "S/N": 7.2}, {"substance": "GCKFRLWHCKQDSDCLAGCVCTAQPDCG (also: bicyclic or more (positions not given here)) [ApoL1 EET I-II 47]", "S/N": 3.6}, {"substance": "GCKFRNWLCKQDSDCLAGCVCPWDTHCG (also: bicyclic or more (positions not given here)) [ApoL1 EET I-II 43]", "S/N": 6.6}, {"substance": "GCKFRRWKCKQDSDCLAGCVCDPQGPCG (also: bicyclic or more (positions not given here)) [ApoL1 EET I-II 39]", "S/N": 9.9}, {"substance": "GCKFWFWRLCKQDSDCLAGCVCAGSPPCG (also: bicyclic or more (positions not given here)) [ApoL1 EET I-II 35]", "S/N": 14.1}, {"substance": "GCKFWLHRYKQDSDCLAGCVCGPNVFG [ApoL1 EET I-II 4]", "S/N": 47.1}, {"substance": "GCKFWSRFCKQDSDCLAGCVCKNTDHCG (also: bicyclic or more (positions not given here)) [ApoL1 EET I-II 6]", "S/N": 44.8}, {"substance": "GCKMKKYMCKQDSDCLAGCVCHQQSKCG (also: bicyclic or more (positions not given here)) [ApoL1 EET I-II 40]", "S/N": 8.9}, {"substance": "GCKYKCKQDSDCLAGCVCQQQGGCG (also: bicyclic or more (positions not given here)) [ApoL1 EET I-II 14]", "S/N": 40.2}, {"substance": "GCLFKKAMGFCKQDSDCLAGCVCREMSHCG (also: bicyclic or more (positions not given here)) [ApoL1 EET I-II 3]", "S/N": 52.4}, {"substance": "GCLFKQEMGTCKQDSDCLAGCVCEFQQKCG (also: bicyclic or more (positions not given here)) [ApoL1 EET I-II 16]", "S/N": 40.2}, {"substance": "GCLFKRHFCKQDSDCLAGCVCVDQFPCG (also: bicyclic or more (positions not given here)) [ApoL1 EET I-II 21]", "S/N": 35.5}, {"substance": "GCLFRRNFCKQDSDCLAGCVCEPFPECG (also: bicyclic or more (positions not given here)) [ApoL1 EET I-II 31]", "S/N": 17.5}, {"substance": "GCMFKAHWCKQDSDCLAGCVCHRSALCG (also: bicyclic or more (positions not given here)) [ApoL1 EET I-II 12]", "S/N": 41.1}, {"substance": "GCMFKQRHCKQDSDCLAGCVCSQGQPCG (also: bicyclic or more (positions not given here)) [ApoL1 EET I-II 5]", "S/N": 47.1}, {"substance": "GCMFKRYFCKQDSDCLAGCVCPHDDQCG (also: bicyclic or more (positions not given here)) [ApoL1 EET I-II 34]", "S/N": 14.2}, {"substance": "GCMFLRHFNRCKQDSDCLAGCVCPHIPDCG (also: bicyclic or more (positions not given here)) [ApoL1 EET I-II 26]", "S/N": 24.0}, {"substance": "GCMFQMHFCKQDSDCLAGCVCGMSDCCG [ApoL1 EET I-II 27]", "S/N": 23.7}, {"substance": "GCRFKRHKCKQDSDCLAGCVCPEMSTCG (also: bicyclic or more (positions not given here)) [ApoL1 EET I-II 15]", "S/N": 40.2}, {"substance": "GCRFMSHMRKRECKQDSDCLAGCVCDYQTACG (also: bicyclic or more (positions not given here)) [ApoL1 EET I-II 1]", "S/N": 70.0}, {"substance": "GCRFREMFYKVTCKQDSDCLAGCVCSHEANCG (also: bicyclic or more (positions not given here)) [ApoL1 EET I-II 8]", "S/N": 43.8}, {"substance": "GCRFRLWAMKSHCKQDSDCLAGCVCSDYSDCG (also: bicyclic or more (positions not given here)) [ApoL1 EET I-II 13]", "S/N": 40.4}, {"substance": "GCRFRQHWCKQDSDCLAGCVCLEQPECG (also: bicyclic or more (positions not given here)) [ApoL1 EET I-II 24]", "S/N": 30.3}, {"substance": "GCRFWQWRCKQDSDCLAGCVCGWDRECG (also: bicyclic or more (positions not given here)) [ApoL1 EET I-II 32]", "S/N": 17.1}, {"substance": "GCSWKCKQDSDCLAGCVCKMSQQCG (also: bicyclic or more (positions not given here)) [ApoL1 EET I-II 45]", "S/N": 4.7}, {"substance": "GCYYKCKQDSDCLAGCVCRTSNMCG (also: bicyclic or more (positions not given here)) [ApoL1 EET I-II 17]", "S/N": 39.0}, {"substance": "GPTQSPFGQCGGIGYSGPTVCASGTTCQVLRPNFSWCLPGAS (also: bicyclic or more (positions not given here)) [ApoL1 CBD 1]", "S/N": 21.6}]}, {"tested_on": "Lgr5ECD-Fc", "assay": "not given", "type": "binding, human", "settings": "ratio of signal for target protein over BSA background", "values": [{"substance": "GCASGYWWRMWFCKQDSDCLAGCVCGPNGFCG (also: bicyclic or more (positions not given here)) [Lgr5ECD-Fc EET I-II 15]", "S/N": 14.1}, {"substance": "GCAVYQVYCKQDSDCLAGCVCAVKFHCG (also: bicyclic or more (positions not given here)) [Lgr5ECD-Fc EET I-II 12]", "S/N": 21.6}, {"substance": "GCGFWWKYWFCKQDSDCLAGCVCGPNGFCG (also: bicyclic or more (positions not given here)) [Lgr5ECD-Fc EET I-II 20]", "S/N": 6.1}, {"substance": "GCGFWYMQWFCKQDSDCLAGCVCDPMGNCG (also: bicyclic or more (positions not given here)) [Lgr5ECD-Fc EET I-II 6]", "S/N": 36.2}, {"substance": "GCGWWYRQWFCKQDSDCLAGCVCLETPECG (also: bicyclic or more (positions not given here)) [Lgr5ECD-Fc EET I-II 4]", "S/N": 40.2}, {"substance": "GCGYWFYEWFCKQDSDCLAGCVCDPNGFCG (also: bicyclic or more (positions not given here)) [Lgr5ECD-Fc EET I-II 11]", "S/N": 21.7}, {"substance": "GCGYWWKKWFCKQDSDCLAGCVCGPNSFCG (also: bicyclic or more (positions not given here)) [Lgr5ECD-Fc EET I-II 9]", "S/N": 29.2}, {"substance": "GCGYWWKQWFCKQDSDCLAGCVCGPNGFCG (also: bicyclic or more (positions not given here)) [Lgr5ECD-Fc EET I-II 10]", "S/N": 25.7}, {"substance": "GCGYWWRLWFCKQDSDCLAGCVCGPNGSCG (also: bicyclic or more (positions not given here)) [Lgr5ECD-Fc EET I-II 14]", "S/N": 15.3}, {"substance": "GCGYWWRTWFCKQDSDCLAGCVCGPNGFCG (also: bicyclic or more (positions not given here)) [Lgr5ECD-Fc EET I-II 13]", "S/N": 17.1}, {"substance": "GCGYWWVQWFCKQDSDCLAGCVCGPNGFCD (also: bicyclic or more (positions not given here)) [Lgr5ECD-Fc EET I-II 17]", "S/N": 10.3}, {"substance": "GCGYWYKQWFCKQDSDCLAGCVCGPNGFCG (also: bicyclic or more (positions not given here)) [Lgr5ECD-Fc EET I-II 8]", "S/N": 32.0}, {"substance": "GCGYWYLEWFCKQDSDCLAGCVCGPNGFCG (also: bicyclic or more (positions not given here)) [Lgr5ECD-Fc EET I-II 18]", "S/N": 9.9}, {"substance": "GCGYWYRIWFCKQDSDCLAGCVCGPNGFCG (also: bicyclic or more (positions not given here)) [Lgr5ECD-Fc EET I-II 3]", "S/N": 43.5}, {"substance": "GCGYWYRVWFCKQDSDCLAGCVCQEPGPCG (also: bicyclic or more (positions not given here)) [Lgr5ECD-Fc EET I-II 2]", "S/N": 44.3}, {"substance": "GCHEGYWWRQWFCKQDSDCLAGCVCGPNGFCG (also: bicyclic or more (positions not given here)) [Lgr5ECD-Fc EET I-II 16]", "S/N": 11.5}, {"substance": "GCLFRNLRMACKQDSDCLAGCVCGPNGFCG (also: bicyclic or more (positions not given here)) [Lgr5ECD-Fc EET I-II 24]", "S/N": 13.9}, {"substance": "GCLYLGWLCKQDSDCLAGCVCDYFWYCVHqS (bicyclic or more) [Lgr5ECD-Fc EET I-II 25]", "S/N": 19.5}, {"substance": "GCMNSYWYNQWFCKQDSDCLAGCVCGPNGFCG (also: bicyclic or more (positions not given here)) [Lgr5ECD-Fc EET I-II 1]", "S/N": 47.1}, {"substance": "GCNRSYWFRQWFCKQDSDCLAGCVCGPNGFCG (also: bicyclic or more (positions not given here)) [Lgr5ECD-Fc EET I-II 22]", "S/N": 4.7}, {"substance": "GCQQGYWYWQWFCKQDSDCLAGCVCGPNGFCG (also: bicyclic or more (positions not given here)) [Lgr5ECD-Fc EET I-II 7]", "S/N": 33.7}, {"substance": "GCRHGYWFHYWFCKQDSDCLAGCVCGPNGFCG (also: bicyclic or more (positions not given here)) [Lgr5ECD-Fc EET I-II 23]", "S/N": 3.9}, {"substance": "GCSYWWRVWFCKQDSDCLAGCVCGPNGFCG (also: bicyclic or more (positions not given here)) [Lgr5ECD-Fc EET I-II 19]", "S/N": 7.2}, {"substance": "GCTSNFWYKQWFCKQDSDCLAGCVCGPNGFCG (also: bicyclic or more (positions not given here)) [Lgr5ECD-Fc EET I-II 5]", "S/N": 39.0}, {"substance": "GCWVNFWMCKQDSDCLAGCVCRVLDVCG (also: bicyclic or more (positions not given here)) [Lgr5ECD-Fc EET I-II 26]", "S/N": 11.7}, {"substance": "GCYHGYWYITWFCKQDSDCLAGCVCSQDEQCG (also: bicyclic or more (positions not given here)) [Lgr5ECD-Fc EET I-II 21]", "S/N": 5.1}, {"substance": "GPAHSTYGRCGGIDYYGPTVCASGTTCLVLWPALSWCLPRSF (also: bicyclic or more (positions not given here)) [Lgr5ECD-Fc CBD 17]", "S/N": 26.2}, {"substance": "GPTQSAFGPCGGIGYSGHTVCASGTTCQVLSPNVSHCLPGAS (also: bicyclic or more (positions not given here)) [Lgr5ECD-Fc CBD 16]", "S/N": 6.6}]}]}
